Assays:
Test in all cases: relative viability (nuclei count vs DMSO), 5 days (fraction); higher = more cells survive
Bosutinib + Trametinib = compound: COc1cc(Nc2c(C#N)cnc3cc(OCCCN4CCN(C)CC4)c(OC)cc23)c(Cl)cc1Cl [Bosutinib] + CC(=O)Nc1cccc(-n2c(=O)n(C3CC3)c(=O)c3c(Nc4ccc(I)cc4F)n(C)c(=O)c(C)c32)c1 [Trametinib] (partner 0.02 µM)
Method in brief: (§1)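 Five library-drug doses in √10 steps were combined with a fixed anchor-drug dose, or a single drug was given alone, by pin tool to lung cancer cell lines in 1536-well plates the day after seeding. Nuclei were stained and counted after 5 days. Relative viability is the nuclei count in treated wells over that in vehicle wells, taken as the median of duplicate plates.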

Bosutinib + Navitoclax = compound: COc1cc(Nc2c(C#N)cnc3cc(OCCCN4CCN(C)CC4)c(OC)cc23)c(Cl)cc1Cl [Bosutinib] + CC1(C)CCC(c2ccc(Cl)cc2)=C(CN2CCN(c3ccc(C(=O)NS(=O)(=O)c4ccc(N[C@H](CCN5CCOCC5)CSc5ccccc5)c(S(=O)(=O)C(F)(F)F)c4)cc3)CC2)C1 [Navitoclax] (partner 0.5 µM)
Method in brief: as §1

Bosutinib + Luminespib = compound: COc1cc(Nc2c(C#N)cnc3cc(OCCCN4CCN(C)CC4)c(OC)cc23)c(Cl)cc1Cl [Bosutinib] + CCNC(=O)c1noc(-c2cc(C(C)C)c(O)cc2O)c1-c1ccc(CN2CCOCC2)cc1 [Luminespib] (partner 0.01 µM)
Method in brief: as §1

Bosutinib + AZD7762 = compound: COc1cc(Nc2c(C#N)cnc3cc(OCCCN4CCN(C)CC4)c(OC)cc23)c(Cl)cc1Cl [Bosutinib] + NC(=O)Nc1cc(-c2cccc(F)c2)sc1C(=O)N[C@H]1CCCNC1 [AZD7762] (partner 0.2 µM)
Method in brief: as §1

Bosutinib + Decitabine = compound: COc1cc(Nc2c(C#N)cnc3cc(OCCCN4CCN(C)CC4)c(OC)cc23)c(Cl)cc1Cl [Bosutinib] + Nc1ncn([C@H]2C[C@H](O)[C@@H](CO)O2)c(=O)n1 [Decitabine] (partner 2 µM)
Method in brief: as §1

Cell Line | relative viability (Bosutinib + Trametinib; first compound 0.01 µM) | relative viability (Bosutinib + Trametinib; first compound 0.03162 µM) | relative viability (Bosutinib + Trametinib; first compound 0.1 µM) | relative viability (Bosutinib + Trametinib; first compound 1 µM) | relative viability (Bosutinib + Navitoclax; first compound 0.01 µM) | relative viability (Bosutinib + Navitoclax; first compound 0.03162 µM) | relative viability (Bosutinib + Navitoclax; first compound 0.1 µM) | relative viability (Bosutinib + Navitoclax; first compound 1 µM) | relative viability (Bosutinib + Luminespib; first compound 0.01 µM) | relative viability (Bosutinib + Luminespib; first compound 0.03162 µM) | relative viability (Bosutinib + Luminespib; first compound 0.1 µM) | relative viability (Bosutinib + Luminespib; first compound 1 µM) | relative viability (Bosutinib + AZD7762; first compound 0.01 µM) | relative viability (Bosutinib + AZD7762; first compound 0.03162 µM) | relative viability (Bosutinib + AZD7762; first compound 0.1 µM) | relative viability (Bosutinib + AZD7762; first compound 1 µM) | relative viability (Bosutinib + Decitabine; first compound 0.01 µM) | relative viability (Bosutinib + Decitabine; first compound 0.03162 µM) | relative viability (Bosutinib + Decitabine; first compound 0.1 µM) | relative viability (Bosutinib + Decitabine; first compound 1 µM)
201T | 0.745 | 0.696 | 0.682 | 0.708 | 1.2 | 1.2 | 1.2 | 1.14 | 1.01 | 1.06 | 1.02 | 0.848 | 0.581 | 0.654 | 0.603 | 0.62 | 0.892 | 0.874 | 0.848 | 0.821
A-427 | 0.832 | 0.822 | 0.783 | 0.681 | 0.947 | 0.97 | 1.05 | 0.888 | 0.959 | 0.953 | 0.936 | 0.745 | 0.777 | 0.691 | 0.661 | 0.643 | 0.596 | 0.56 | 0.617 | 0.612
BEN | 1.02 | 0.855 | 1.01 | 0.804 | 0.0464 | 0.0561 | 0.0932 | 0.0522 | 0.442 | 0.282 | 0.478 | 0.434 | 0.608 | 0.697 | 0.675 | 0.658 | 0.668 | 0.752 | 0.819 | 0.668
CAL-12T | 0.28 | 0.366 | 0.334 | 0.234 | 1.23 | 1.16 | 1.09 | 1.12 | 0.516 | 0.587 | 0.335 | 0.204 | 0.576 | 0.529 | 0.596 | 0.515 |  |  |  | 
ChaGo-K-1 | 0.91 | 0.89 | 0.891 | 0.875 | 0.602 | 1.33 | 1.31 | 1.56 | 0.622 | 0.555 | 0.47 | 0.585 | 0.919 | 0.89 | 0.923 | 0.852 | 0.496 | 0.536 | 0.511 | 0.518
EKVX | 0.306 | 0.334 | 0.364 | 0.228 | 0.882 | 0.929 | 0.914 | 0.807 | 0.799 | 0.914 | 0.834 | 0.633 | 0.441 | 0.751 | 0.735 | 0.656 | 0.382 | 0.38 | 0.311 | 0.336
EMC-BAC-2 | 0.848 | 0.887 | 0.857 | 0.773 | 1.2 | 1.1 | 1.15 | 1.15 | 1.22 | 1.07 | 1.17 | 1.04 | 1.18 | 1.11 | 1.13 | 1.09 | 0.963 | 0.967 | 0.992 | 0.988
EPLC-272H | 0.297 | 0.281 | 0.281 | 0.281 | 1.05 | 1.09 | 1.15 | 1.35 | 0.149 | 0.932 | 0.649 | 0.278 | 0.225 | 0.244 | 0.18 | 0.232 | 0.358 | 0.383 | 0.418 | 0.321
H3255 |  | 0.578 | 0.63 | 0.422 | 0.669 | 0.574 | 0.485 | 0.218 | 1.11 | 0.912 | 0.866 | 0.784 | 0.846 | 1.02 | 0.949 | 0.517 |  | 0.725 | 0.804 | 0.354
HARA | 0.943 | 0.745 | 0.633 | 0.57 | 1.16 | 1.1 | 1.12 | 1.19 | 0.885 | 0.549 | 0.682 | 0.741 | 0.304 | 0.308 | 0.297 | 0.644 | 0.581 | 0.547 | 0.618 | 0.489
HCC-15 | 0.396 | 0.457 | 0.383 | 0.328 | 0.707 | 0.715 | 0.741 | 0.689 | 0.39 | 0.346 | 0.315 | 0.18 | 1.23 | 1.12 | 1.23 | 1.23 | 0.653 | 0.659 | 0.659 | 0.609
HCC-44 | 1.03 | 1.04 | 1.09 | 1.05 | 1.03 | 0.926 | 0.969 | 0.849 | 1.18 | 1.07 | 1.08 | 0.627 | 1.02 | 1.01 | 1.01 | 1.04 | 0.97 | 0.995 | 0.971 | 0.987
HCC-78 | 0.84 | 0.712 | 0.768 | 0.725 | 0.798 | 0.737 | 0.752 | 0.661 |  |  |  |  | 0.655 | 0.788 | 0.781 | 0.584 | 0.768 | 0.698 | 0.761 | 0.676
HCC-366 | 0.319 | 0.226 | 0.326 | 0.215 | 1.08 | 1.05 | 0.997 | 0.49 |  |  |  |  | 0.34 | 0.253 | 0.205 | 0.073 | 0.348 | 0.365 | 0.312 | 0.265
HCC-827 | 0.55 | 0.6 | 0.594 | 0.18 | 1 | 0.986 | 1.04 | 0.933 | 0.709 | 0.589 | 0.525 | 0.174 | 0.219 | 0.21 | 0.189 | 0.168 | 0.306 | 0.37 | 0.404 | 0.186
HOP-62 | 0.377 | 0.425 | 0.401 | 0.354 | 0.901 | 0.982 | 1.04 | 1.09 | 0.993 | 0.895 | 0.937 | 0.904 | 0.497 | 0.619 | 0.721 | 0.4 | 0.208 | 0.215 | 0.209 | 0.253

Source: the supplement of paper PMC10307832
